In patent US11773157B2, “Compositions and methods for treating and preventing Staphylococcus aureus infections” (priority 2014, dated 2023):

System: MRSA (NR 46223)
Test: In vivo survival, MRSA bacteremia with vancomycin co-treatment
Parameters: species or system Balb/C mice
Conditions: 0.5 mg vancomycin i.p. alone (0 mg PA8-G3), two hours prior to infection; 3×10^7 CFU i.v.; PBS 10%
Description: Referring to FIGS. 8A-C, at day 14, only 10% of the PBS treated mice survived, 30% of the vancomycin treated mice survived. […] Statistical analysis of the animal data was conducted using Kaplan-Meier Survival Analysis with a Mantel-Cox (logrank) test.

Structure (SMILES): CN[C@H](CC(C)C)C(=O)N[C@H]1C(=O)N[C@@H](CC(N)=O)C(=O)N[C@H]2C(=O)N[C@H]3C(=O)N[C@H](C(=O)N[C@H](C(=O)O)c4cc(O)cc(O)c4-c4cc3ccc4O)[C@H](O)c3ccc(c(Cl)c3)Oc3cc2cc(c3O[C@@H]2O[C@H](CO)[C@@H](O)[C@H](O)[C@H]2O[C@H]2C[C@](C)(N)[C@H](O)[C@H](C)O2)Oc2ccc(cc2Cl)[C@H]1O [vancomycin, reference compound]
- mice survived at day 14: 30%
